# Measured values taken from patent US20110053900A1, “PROGESTERONE ANTAGONISTS SUCH AS CDB-4124 IN THE TREATMENT OF BREAST CANCER” (Repros Therapeutics inc, priority 2008, published 2011).
# What was measured:
# [1] = system: progesterone receptor (PR); assay: Expression of progesterone receptor in tumors (IHC); assay type: in vivo, rat; conditions: 10 mg/kg
# Method: (§1) The tumors that were evaluated for proliferation and apoptosis were also assessed for expression of estrogen and progesterone receptors by immunohistochemistry (IHC). The percentage of cells positive for ER and PR was determined and analyzed. Tumors were grouped into four different categories: tumors with 0% of cells expressing ER, tumors with 10% of cells expressing ER, tumors with 15 to 30% of cells expressing ER and tumors with 30-50% of cells expressing ER. In general, untreated tumors consistently expressed ER. Out of 12 tumors analyzed, all 12 expressed ER. Four out of these 12 tumors contained 30-50% ER-positive cells.
# Untreated tumors consistently expressed PR (12/12 tumors). In general, untreated tumors expressed both receptors, ER and PR, therefore it is possible that many malignant tumors are expressors of these two transcription factors. […] In general, long term treatment with CDB-4124 tends to drive down the level of PR in tumors, whereas progesterone tends to work in the opposite direction. Thus, tumors maintain progesterone responsiveness in the presence of progesterone.
# estrogen receptor (ER) = assay: Expression of estrogen receptor in tumors (IHC); assay type: in vivo, rat; conditions: 10 mg/kg
# Method: as §1
# [2] = system: DMBA-induced tumors of the rat mammary gland; assay: DMBA-induced breast tumors: tumor number and tumor type at necropsy; assay type: in vivo; conditions: 10 mg/kg s.c. daily, 28 days
# Method: (§2) To induce breast tumors, Sprague-Dawley female rats were given 10 mg/kg body weight of DMBA at 50 days of age. One group of 14 rats (Group 2) received sesame oil at 50 days of age instead of DMBA to serve as the no-DMBA controls. Animals were weighed and palpated weekly along the milk line for any sign of lesions or swellings. Tumor nodules were noted and measured weekly in two dimensions with calipers. When tumors grew to a size of 10-12 mm in any dimension, the individual animal was randomized into one of 14 groups. Tumors appeared as soon as 39 days after oral gavage and as late as 194 days (latter individual not included in study). The mean latency period for tumor appearance was 106±30 days.
# (§3) Animals were treated for 28 days on the following schedule. Group 1 received daily subcutaneous (s.c.) injections of vehicle (10% ethanol in sesame oil). Group 2 (no DMBA control group-no tumors expected) received vehicle on a schedule decided beforehand to simulate initiation of treatment over a three-month time period. […] Groups 5 through 9 received 20 mg/kg, 10 mg/kg, 2 mg/kg, 1 mg/kg and 0.1 mg/kg of CDB-4124, respectively. Groups 10 through 14 mirrored the treatment given 5 through 9 except that 10 mg/kg of micronized progesterone was also added as a component to compositions for injections.
# (§4) Animals were sacrificed 3-5 days after the end of the 28-day treatment period, blood was drawn, and tumors were removed, weighed, measured, inspected, and portions frozen and/or placed in 10% phosphate buffered formalin for histopathology. The tissue samples were cut and stained with hematoxylin and eosin and were evaluated for histopathological classification.
# Histologically, four types of tumors were identified (Table 2): adenocarcinomas (ACAs), papillary carcinomas (PCAs), a fibrosarcoma, and fibroadenomas or adenofibromas (FA or AF), the latter two tumor types were not considered to represent frank malignancies.
# [3] = Serum corticosterone by ELISA; assay type: in vivo, rat; conditions: exogenous progesterone 10 mg/kg, after 21 days of treatment, paired groups
# Method: (§5) The animals were assessed three times for their levels of progesterone: initially, when they were about to go on treatment; a second time after 21 days of treatment; and finally after treatment at sacrifice which was 2-4 days after the last s.c. injection. All blood samples were taken by heart puncture; serum was prepared and held frozen at −40° C. The levels of the steroid hormones progesterone, cortisol, and corticosterone were determined by ELISA.
# (§6) The concentrations of steroid hormones were determined three times during the study: before the beginning of treatments, after 21 days of treatment and finally after treatment at sacrifice which was 2-4 days after the last s.c. injection. All samples were taken by heart puncture. Serum was obtained and held frozen at −40° C. The levels of steroid hormones were determined by ELISA.
# Corticosterone is the most abundant glucocorticoid in rats. The effects of the SPRMs on cortisol may be secondary to strong effects on corticosterone. […] The levels of corticosterone were 10-40 times higher than the levels of cortisol. However, almost no difference between groups with respect to mean corticosterone levels was observed. […] There was no statistical difference in levels of corticosterone between animals with tumors and without tumors at either 21-days (p=0.94, t-test, two-tailed) or at sacrifice (p=0.37, t-test, two-tailed).
# [4] = Serum progesterone by ELISA; assay type: in vivo, rat
# Method: as §5, §6
# [5] = system: rat tumors (proliferation marker Ki-67); assay: Tumor proliferation by Ki-67 immunohistochemistry; assay type: in vivo; conditions: 10 mg/kg
# Text: In order to assess the effects of progestins and anti-progestins on cell proliferation, tissue sections derived from 46 individual rat tumors from treated an control animals were examined by measuring expression of the proliferation marker Ki-67 using the Ki-67 antibody (NeoMarkers, Fremont, Calif.) and immunohistochemistry. Despite the reduction in size of many tumors in Groups 3 and 6 following treatment in Groups 3 and 6 making them too small to be re-cut, 7-12 ACAs from Groups 1, 3, 4, 6 and 11 were re-cut. The results of proliferation experiments, in which proliferation was measured as a percentage of cells expressing Ki-67, are summarized in Table 4: […]
# [6] = system: DMBA-induced tumors of the rat mammary gland; assay: DMBA-induced breast tumors: tumor progression (growth pattern); assay type: in vivo; conditions: 10 mg/kg
# Method: as §2, §3
# In order to evaluate the effects of CDB-4124, RU486 and progesterone on tumor development and progression, growth kinetics and tumor size were monitored during the treatment period. Individual tumors from animals with tumors in the study were measured weekly in two dimensions with calipers. The data is corrected to exclude the non-malignant FA/AF tumor types. Tumors that increased in cross-sectional area by at least 33% over the 28-day inspection period were considered to be growing (FIG. 1, black boxes). Those that decreased by approximately 33% were considered to be regressing (FIG. 1, white boxes). Others were considered to be static (FIG. 1, gray boxes).
# [7] = system: DMBA-induced tumors of the rat mammary gland; assay: DMBA-induced breast tumors: tumor number, size and tumor burden at necropsy; assay type: in vivo; conditions: 10 mg/kg s.c. daily, 28 days
# Method: as §2, §3, §4
# The results in Table 3 are those for ACA, PCA and mixed ACA/PCA, but the FA or AF tumors are excluded.
# rat tumors = assay: Apoptosis in tumors; assay type: in vivo; conditions: 10 mg/kg
# Method: Apoptosis was evaluated in the same tumors by an apoptosis hybridization kit (Oncor, Gaithersburg, Md.). The cells in apoptosis were evaluated in the peripheral areas of the tumors and far from necrosis. At least 1,000 cells per tumor section were evaluated.
structure (smiles),measurement,setting,value
"CC(=O)[C@H]1CC[C@H]2[C@@H]3CCC4=CC(=O)CC[C@]4(C)[C@H]3CC[C@]12C [Progesterone, progesterone]",PR expression in tumors (in words),[1],tended to raise PR expression
same,number of cells expressing ER in tumors (in words),estrogen receptor (ER),increased number of cells expressing ER
same,ACA + PCA per rat,[2],4.90
same,ACA per rat,[2],3.3
same,FA/AF no.,[2],3
same,Incidence of tumors (%),[2],(100) %
same,Incidence of tumors (rats with tumors/rats),[2],10/10
same,PCA per rat,[2],1.4
same,ACA + PCA per rat,[2]; listed as progesterone,~5
same,effect on serum corticosterone (in words),[3],levels of corticosterone were lowered
same,"Serum Progesterone, Before TX (mean)","[4]; 10 mg/kg group, before treatment",51 ng/mL
same,"Serum Progesterone, During TX (mean)","[4]; 10 mg/kg, after 21 days of treatment",55 ng/mL
same,"Serum Progesterone, After TX (mean)","[4]; 10 mg/kg, at sacrifice 2-4 days after the last s.c. injection",54 ng/mL
same,"Proliferating tumor cells by Ki-67, % cells positive",[5],25.7 ± 5.8%
same,proportion of tumors regressing,[6]; decrease of cross-sectional area by about 33% over 28 days,8%
same,proportion of the growing tumors,[6]; increase of cross-sectional area by at least 33% over 28 days,80%
same,Tumor Burden,[7],7.34 g/rat
same,Tumor Weight mean,[7],1.5 g
same,Tumor Weight median,[7],0.5 g
same,Number of Tumors,[7]; FA/AF excluded,49
same,"Apoptosis, % cells positive",rat tumors,1.28 ± 0.51%
